Source: US20110212218A1, “Method for modulating animal digestive tract microbiota and feed composition comprising bark extract” (UPM-KYMMENE CORPORATION, priority 2009, published 2011)
Like-named read-outs stand apart in the source and are kept apart here.

Tested on: ileal microbial metabolism
Assay: Broiler ileal simulation in vitro, SCFA production
Assay type: cell-based, broilers

Compound | total production of short chain fatty acids (SCFA) (ileal simulation, 12 hours (FIG. 6)) | total production of short chain fatty acids (SCFA)
CC[C@@H](C(=O)O)[C@@H]1O[C@@H]([C@@H](C)[C@H](O)[C@H](C)C(=O)[C@H](CC)[C@H]2O[C@]3(C=C[C@@H](O)[C@]4(CC[C@@](C)([C@H]5CC[C@](O)(CC)[C@H](C)O5)O4)O3)[C@H](C)C[C@@H]2C)[C@@H](C)C[C@@H]1C [Narasin] | decreased | 
C=C(C)[C@@H]1CC[C@]2(CO)CC[C@]3(C)[C@H](CC[C@@H]4[C@@]5(C)CC[C@H](O)C(C)(C)[C@@H]5CC[C@]43C)[C@@H]12 [fraction C, betulinol] |  | increased
